Reference: US20230374043A1, “Hexadeca Ammonium-Modified Phthalocyanine and Preparation Method and Use Thereof as Photodynamic Drug” (Fuzhou University, priority 2020, published 2023)
Read-outs that look alike come from different tables or passages of the source.

Tests used:
[1] = ultraviolet-visible absorption spectrum of zinc phthalocyanine complexes in water; type: physicochemical; details: for maximum absorption wavelength: in water; for state in water judged from Q band (aggregation / monomer): 4 μM, no surfactant
Excerpt: It was seen from the figure that the Q bands of the zinc phthalocyanine complexes obtained in Examples 1 to 6 in water each were relatively wide and low, showing different degrees of aggregation; while only the Q bands of the zinc phthalocyanine complexes in Examples 7 and 8 in water were strong and sharp peaks.

[2] = system: human liver cancer cells HepG2; assay: dark toxicity and photodynamic anticancer effect on HepG2 cells (MTT); type: cell-based; details: for photodynamic activity relative to tetrakis-α-(2,4,6-tris(N,N,N-trimethylammonium methyl)-phenoxy)zinc phthalocyanine dodecaiodate: HepG2, under illumination; for dark toxicity on HepG2 cells: without illumination, 2 h incubation; for photodynamic anticancer activity: HepG2, after illumination with red light
Experimental: (§1) The dark toxicity and photodynamic anticancer effect of the 2,3-bis[3-(trimethyl ammonium)phenoxy]zinc phthalocyanine diiodate of Example 2, the 1,2,3,4-bis[3-(trimethylammonium)phenoxy]zinc phthalocyanine tetraiodate of Example 4, the octa-β-[3-(trimethylammonium)phenoxy]zinc phthalocyanine octaiodate of Example 6, and the hexadeca-[3-(trimethylammonium)phenoxy]zinc phthalocyanine hexadecaiodate of Example 8 on human liver cancer cells HepG2 were tested, respectively.
The main steps were as follows: the above photosensitive medicaments were separately dissolved in water to obtain 1 mM photosensitizers, and then diluted into a cell medium to prepare cell mediums containing zinc phthalocyanine complexes at different concentrations. The human liver cancer cells HepG2 were cultured in the mediums containing zinc phthalocyanine complexes at different concentrations for 2 h; the medium was discarded; and after washing with PBS, the cells were added into a new medium (without zinc phthalocyanine complexes). Illumination experiment group: the cells were irradiated with red light for 30 min at a power of irradiated light at 15 mW cm^−2 using red light with a wavelength greater than 600 nm as an excitation light source; non-illumination control group: the cells were placed in the dark for 30 min. After illumination or non-illumination, the cell viability was examined by MTT.
(§2) The red light with a wavelength greater than 610 nm was provided by a 500 W halogen lamp connected to an insulated water tank and an optical filter greater than 610 nm.

liver cancer H22 = assay: small animal live imaging in tumor-bearing (liver cancer H22) mouse model; type: in vivo; details: tail vein; for time at which tumor fluorescence reached its peak: 0.8 mol·Kg^-1, imaging within 24 h
Experimental: The 2,3-bis[3-(trimethylammonium)phenoxy]zinc phthalocyanine diiodate of Example 2, the 1,2,3,4-bis[3-(trimethylammonium)phenoxy]zinc phthalocyanine tetraiodate of Example 4, the octa-β-[3-(trimethylammonium)phenoxy]zinc phthalocyanine octaiodate of Example 6, and the hexadeca-[3-(trimethylammonium)phenoxy]zinc phthalocyanine hexadecaiodate of Example 8 each were dissolved in a physiological saline and diluted into solutions to be tested. A tumor-bearing (liver cancer H22) mouse model was established according to a method in the literature (ACS Applied Materials & Interfaces, 2019, 11(40), 36435-36443), 100 μL of each phthalocyanine solution (at an administration dosage: […]) was injected through the tail vein, and small animal live imaging was conducted within the next 24 h.

subcutaneous tumors = assay: photodynamic tumor inhibition in KM mice with subcutaneous tumors; type: in vivo
Experimental: The zinc phthalocyanine complex obtained in Example 8 was dissolved in physiological saline and diluted to form a solution to be tested. […] with subcutaneous tumors were taken, and each drug was divided into 4 groups (a medication+laser group, a medication group, a normal saline group, and a normal saline+laser group), with 5 mice in each group; when the tumor grew to (60-100) mm^3, 100 μL of a phthalocyanine aqueous solution was injected intravenously at a dosage of […]. After 1 h, the mice were anesthetized and irradiated with laser of (685±5) nm (at a light intensity of 9.4 mW cm^−2 for 10 min). The mice were continued to be fed, and observed every other day; a weight of the mice was measured and a long diameter and a short diameter of the mice were measured with a vernier caliper for a total of 14 d.

Staphylococcus aureus [3] = assay: dark toxicity and photodynamic antibacterial effect against Staphylococcus aureus (colony count); type: cell-based; details: for IC90: 4 h incubation, red light >610 nm, 15 mW cm^-2, 30 min, read-out: IC90 value (concentration required to kill 90% of Staphylococcus aureus); for increase compared with the IC90 value of MB: under illumination; for dark toxicity on Staphylococcus aureus: without illumination, 4 h in PBS, colony count; for photodynamic antibacterial activity: after illumination with red light
Experimental: as §1, with “antibacterial” for “anticancer”, “2,3-bis[3-(trimethylammonium)phenoxy]zinc” for “2,3-bis[3-(trimethyl ammonium)phenoxy]zinc”, “against Staphylococcus aureus” for “on human liver cancer cells HepG2”, “tested.” for “tested, respectively.”
1 mM of the photosensitive medicament was diluted into PBS to prepare a PBS solutions containing zinc phthalocyanine complexes at different concentrations, and then Staphylococcus aureus was cultured in the PBS solutions containing zinc phthalocyanine complexes at different concentrations for 4 h. Illumination experiment group: the cells were irradiated with red light for 30 min at a power of irradiated light at 15 mW cm^−2 using red light with a wavelength greater than 610 nm as an excitation light source; non-illumination control group: the cells were placed in the dark for 30 min. A treated cell suspension was inoculated on a surface of a Luria-Bertani medium, cultured for 48 h, and the dark toxicity and photodynamic activity of the photosensitive medicament to Staphylococcus aureus were examined by the number of colonies.
as §2

Staphylococcus aureus [4] = assay: photodynamic antibacterial effect on mice infected with Staphylococcus aureus; type: in vivo; details: 15 d
Experimental: A photodynamic antibacterial effect of the hexadeca-[3-(trimethylammonium)phenoxy]zinc phthalocyanine hexadecaiodate of Example 8 was tested on mice infected with Staphylococcus aureus.
0.1 mL of a PBS solution containing Staphylococcus aureus colonies was inoculated subcutaneously on the right abdomen of depilated normal-grade KM female mice (weighed about 20 g), at a cell concentration of (1-2)×10^6 CFU·mL^−1, and the mice could be treated two days after inoculation. 4 groups were set up, namely a hexadeca-[3-(trimethylammonium)phenoxy]zinc phthalocyanine hexadecaiodate+laser group, a hexadeca-[3-(trimethylammonium)phenoxy]zinc phthalocyanine hexadecaiodate group, a blank+laser group, and a blank group. Before treatment, a sterile absorbent pad of a wound dressing was soaked with 100 μL of the phthalocyanine aqueous solution (containing 1% CEL), applied to the wound of the treatment group, and fixed with a zinc oxide tape. The wound dressing was applied for 2 h each time, and then the dressing was changed once, and then continued for another 2 h. The blank group was given normal saline for applying. After 4 h, the illumination group was treated with laser at (685±5) nm (with a light intensity of 9.4 mW·cm^−2 for 5 min). The mice were observed and recorded for 15 d. After 15 d, the tissues at the infected site were excised, ground and extracted with 1 mL of a sterilized PBS to obtain a bacterial suspension, diluted by 50 times, spread on the surface of the corresponding Luria-Bertani medium, with parallelly 3 plates for each concentration, cultured in a 37° C. incubator, and then observed and counted after 24 h.

Staphylococcus aureus [5] = details: comparison value, source not stated, read-out: IC90 value of the commonly used photosensitizer; cited from earlier work
[6] = Homo sapiens, HepG2, read-out: half maximal inhibitory concentration (IC50)

Compound	maximum absorption wavelength [1] [nm]	state in water judged from Q band (aggregation / monomer) [1]	photodynamic activity relative to tetrakis-α-(2,4,6-tris(N,N,N-trimethylammonium methyl)-phenoxy)zinc phthalocyanine dodecaiodate [2] [times]	dark toxicity on HepG2 cells ([2]; MTT)	accumulation / targeting ability in tumor sites (liver cancer H22; 0.8 mol·Kg^-1)	metabolism in vivo (liver cancer H22; 0.8 mol·Kg^-1)	time at which tumor fluorescence reached its peak (liver cancer H22)	increase compared with the IC90 value of MB (Staphylococcus aureus [3]; Staphylococcus aureus) [times]	dark toxicity on Staphylococcus aureus (Staphylococcus aureus [3])	IC50 [2, 6] [nM]	enrichment in organs (liver cancer H22; 0.8 mol·Kg^-1)	IC90 (Staphylococcus aureus [3]; Staphylococcus aureus) [nM]	photodynamic anticancer activity [2]	photodynamic antibacterial activity (Staphylococcus aureus [3])	further results
hexadeca-[3-(dimethylammonium)phenoxy]zinc phthalocyanine hexadecaiodate [Example 8]	714	monomers	2.25	no killing and growth inhibitory effect	excellent targeting ability	rapid metabolism in vivo	2 h	86	no killing and growth inhibitory effect						IC50 ([2]; HepG2, 2 h incubation, red light >600 nm, 15 mW cm^-2, 30 min, MTT, read-out: half maximal inhibitory concentration (IC50)): 40 nM; time until basically scavenged by the body's metabolism (liver cancer H22; 0.8 mol·Kg^-1): about 6 h; toxicity to mice (subcutaneous tumors; i.v. 0.8 mol·Kg^-1, 14 d): no obvious toxicity; tumor inhibition rate (subcutaneous tumors; medication+laser group, i.v. 0.8 mol·Kg^-1, laser (685±5) nm 9.4 mW cm^-2 10 min after 1 h, 14 d): 98.7%; body weight of the mice in the treatment group (subcutaneous tumors; within 14 d): tendency to increase; IC90 (Staphylococcus aureus [3]): 69 nM; appearance of infected skin site (Staphylococcus aureus [4]; +laser group): crusted; inhibition rate of Staphylococcus aureus colonies from excised tissue (Staphylococcus aureus [4]; +laser group, topical dressing 2x2 h (1% CEL), laser (685±5) nm 9.4 mW·cm^-2 5 min): 98%; appearance of infected skin site (Staphylococcus aureus [4]; compound without laser): obvious lumps
C[N+](C)(C)c1cccc(Oc2cc3c(cc2Oc2cccc([N+](C)(C)C)c2)C2=[N+]4C3=Nc3c5cc(Oc6cccc([N+](C)(C)C)c6)c(Oc6cccc([N+](C)(C)C)c6)cc5c5[n]3[Zn]43[n]4c(c6cc(Oc7cccc([N+](C)(C)C)c7)c(Oc7cccc([N+](C)(C)C)c7)cc6c4=NC4=[N+]3C(=N5)c3cc(Oc5cccc([N+](C)(C)C)c5)c(Oc5cccc([N+](C)(C)C)c5)cc34)=N2)c1 [Example 6, 2,3,9,10,16,17,23,24-octa[3-(trimethylammonium)phenoxy]zinc phthalocyanine octaiodate]			1.50	no killing and growth inhibitory effect		low metabolism	about 12 h	83	no killing and growth inhibitory effect	60	enriched to varying degrees in organs such as liver and spleen	71			
C[N+](C)(C)c1cccc(Oc2cc3c(cc2Oc2cccc([N+](C)(C)C)c2)C2=[N+]4C3=Nc3c5ccccc5c5[n]3[Zn@]43[n]4c(c6ccccc6c4=N2)=NC2=[N+]3C(=N5)c3ccccc32)c1 [Example 2, 2,3-bis[3-(trimethylammonium)phenoxy]zinc phthalocyanine diiodate]			1.23	no killing and growth inhibitory effect		low metabolism	12 h	69	no killing and growth inhibitory effect	170	enriched to varying degrees in organs such as liver and spleen	85	high photodynamic anticancer activity	high photodynamic antibacterial activity	
C[N+](C)(C)c1cccc(Oc2c(Oc3cccc([N+](C)(C)C)c3)c(Oc3cccc([N+](C)(C)C)c3)c3c(c2Oc2cccc([N+](C)(C)C)c2)C2=Nc4c5ccccc5c5[n]4[Zn@]46[n]7c(c8ccccc8c7=NC3=[N+]24)=NC2=[N+]6C(=N5)c3ccccc32)c1 [Example 4]			1.00	no killing and growth inhibitory effect	poor accumulation ability in tumor sites			80	no killing and growth inhibitory effect	210		74	high photodynamic anticancer activity	high photodynamic antibacterial activity	
1,2,3,4,8,9,10,11,15,16,17,18,22,23,24,25-hexadeca[3-(dimethylamino)phenoxy]zinc phthalocyanine complex [Example 7]	727	monomers													
CN(C)c1ccc2nc3ccc(=[N+](C)C)cc-3sc2c1 [MB]															IC90 (Staphylococcus aureus [5]): 5900 nM
